SMILES strings stand for the structures.

For one assay, the target named is T1, DNA gyrase (Escherichia coli, UniProt P0AES6).
T1 construct: supercoiling of relaxed pUC18 plasmid
The assay can be described thus: Inhibition of DNA gyrase activity (DNA gyrase supercoiling assay). In kind it is biochemical, E. coli H560. The settings on record: relaxed PUC18 substrate. As to the method: The inhibition of DNA gyrase activity was measured using a DNA gyrase supercoiling assay according to R. Otter & N. Cozzarelli:Methods in Enzymology, Vol. 100, pp 171-180 (1983). DNA gyrase was isolated from E. coli H560, and relaxed PUC18 plasmed was used as substrate. The activities as regards inhibition of DNA gyrase activity, expressed as maximum non-effective concentration of the test compound (MNC in μg/ml) are compiled in the following Table 4: […]

The test system of the next assay is N. meningitidis 69480. The assay can be described thus: Antibacterial activity in vitro (MIC, agar dilution). The class given is cell-based. The conditions noted are these: Neisseria meningitidis, agar dilution (BB2 + 1% Isovitalex + 7.5% sheep blood + metadione), inoculum 10^4 CFU/spot, read-out: minimum inhibitory concentration (MIC). Background: In agar dilution the substance is mixed into plates at graded concentrations.

The test system of another assay is E. coli B. The description is as above. The class given is cell-based. The settings on record: Escherichia coli, agar dilution (BB2 + 1% Isovitalex + 7.5% sheep blood + metadione), inoculum 10^4 CFU/spot, read-out: minimum inhibitory concentration (MIC). The text has this: (§1) In the following table there are complied the minimum inhibitory concentrations (MIC; μg/ml) of some representative compounds of formula I against a series of pathogenic microorganisms.
(§2) Agar dilution (BB2 + 1% Isovitalex + 7.5% sheep blood + metadione),
(§3) Inoculum: 10^4 CFU/spot;

For the next assay, the system named is S. aureus 25923. The assay is described as above. In kind it is cell-based. The settings on record: Staphylococcus aureus, agar dilution (BB2 + 1% Isovitalex + 7.5% sheep blood + metadione), inoculum 10^4 CFU/spot, read-out: minimum inhibitory concentration (MIC).
Excerpt: as §1, §2, §3

In the next assay the test system is S. faecalis 6. Described as above. In kind it is cell-based. The settings on record: Enterococcus faecalis, agar dilution (BB2 + 1% Isovitalex + 7.5% sheep blood + metadione), inoculum 10^4 CFU/spot, read-out: minimum inhibitory concentration (MIC).
Excerpt: as §1, §2, §3

The next assay relates to S. aureus 887. Described as above. The settings on record: Staphylococcus aureus, agar dilution (BB2 + 1% Isovitalex + 7.5% sheep blood + metadione), inoculum 10^4 CFU/spot, read-out: minimum inhibitory concentration (MIC). The class given is cell-based.
Excerpt: as §1, §2, §3

For another assay, the system named is S. pyogenes 15. The description is as above. The class given is cell-based. The settings on record: Streptococcus pyogenes, agar dilution (BB2 + 1% Isovitalex + 7.5% sheep blood + metadione), inoculum 10^4 CFU/spot, read-out: minimum inhibitory concentration (MIC).
Excerpt: as §1, §2, §3

The next assay relates to B. catarrhalis RA 117. The description is as above. The class given is cell-based. The settings on record: Moraxella catarrhalis, RA117, agar dilution (BB2 + 1% Isovitalex + 7.5% sheep blood + metadione), inoculum 10^4 CFU/spot, read-out: minimum inhibitory concentration (MIC).
Excerpt: as §1, §2, §3

A further assay relates to E. coli DC2. The assay is described as above. In kind it is cell-based. The settings on record: Escherichia coli, agar dilution (BB2 + 1% Isovitalex + 7.5% sheep blood + metadione), inoculum 10^4 CFU/spot, read-out: minimum inhibitory concentration (MIC).

Consider `COC(=O)[C@@H]1CSCc2c(O)cc(O)c(C)c2C(=O)OC[C@H](NC(=O)OC(C)(C)C)C(=O)N1` [Example 2, t-butyl (4R,7S)-1,3,4,5,6,7,8,10-octahydro-12,14-dihydroxy-4-methoxycarbonyl-11-methyl-6,10-dioxo-9,2,5-benzoxathiaazacyclododecine-7-carbamate], for which the “maximum non-effective concentration of the test compound (MNC)” value (from here on “maximum non-effective concentration”) at DNA gyrase is 0.1 µg/mL; on DNA gyrase (listed as 13) it was 0.05 µg/mL.

Take `Cc1c(O)cc(O)c2c1C(=O)OC[C@H](NC(=O)OC(C)(C)C)C(=O)N[C@H](C(=O)O)CSC2` [Example 3, (4R,7S)-7-(L-t-butoxyformamido)-1,3,4,5,6,7,8,10-octahydro-12,14-dihydroxy-11-methyl-6,10-dioxo-9,2,5-benzoxathiaazacyclododecine-4-carboxylic acid]: the “maximum non-effective concentration” value at DNA gyrase is 5 µg/mL.

In the case of `Cc1c(O)cc(O)c2c1C(=O)OC[C@H](N)C(=O)N[C@H](C(=O)O)CSC2` [Example 4, (4R,7S)-7-amino-1,3,4,5,6,7,8,10-octahydro-12,14-dihydro-11-methyl-6,10-dioxo-9,2,5-benzoxathiaazacyclododecine-4-carboxylic acid], the “maximum non-effective concentration” value at DNA gyrase came out at 1 µg/mL.

Turning to `COC(=O)[C@@H]1CSCc2c(OC(C)=O)cc(OC(C)=O)c(C)c2C(=O)OC[C@H](N)C(=O)N1` [Example 5, methyl (4R,7S)-12,14-diacetoxy-7-amino-1,3,4,5,6,7,8,10-octahydro-11-methyl-6,10-dioxo-9,2,5-benzoxathiaazacyclododecine-4-carboxylate], the “maximum non-effective concentration” value at DNA gyrase came to 10 µg/mL.

Consider `COC(=O)[C@@H]1CSCc2c(O)cc(O)c(C)c2C(=O)OC[C@H](N)C(=O)N1` [Example 6, methyl (4R,7S)-7-amino-1,3,4,5,6,7,8,10-octahydro-12,14-dihydro-11-methyl-6,10-dioxo-9,2,5-benzoxathiaazacyclododecine-4-carboxylate], for which the “maximum non-effective concentration” value on DNA gyrase came to 2 µg/mL.

With `Cc1c(O)cc(O)c2c1C(=O)OC[C@H](N)C(=O)NCCSC2` [Example 9, (S)-7-amino-4,5,7,8-tetrahydro-12,14-dihydroxy-11-methyl-9,2,5-benzoxathiaazacyclododecine-6,10(1H,3H)-dione], the “maximum non-effective concentration” value at DNA gyrase was 1 µg/mL.

As for `CO/N=C(\C(=O)N[C@H]1COC(=O)c2c(C)c(OC(C)=O)cc(OC(C)=O)c2CSC[C@@H](C(=O)OC)NC1=O)c1csc(N)n1` [Example 10, methyl (4R,7S)-12,14-diacetoxy-7-[(Z)-2-(2-amino-4-thiazolyl) -2-(methoxyimino)acetamido]-1,3,4,5,6,7,8,10-octahydro-11-methyl-6,10-dioxo-9,2,5-benzoxathiaazacyclododecine-4-carboxylate], the “maximum non-effective concentration” value at DNA gyrase is 10 µg/mL.

For `COC(=O)[C@@H]1CSCc2c(O)cc(OC)c(C)c2C(=O)OC[C@H](O)C(=O)N1` [Example 41, methyl (4R,7S)-1,3,4,5,6,7,8,10-octahydro-7,14-dihydroxy-12-methoxy-11-methyl-6,10-dioxo-9,2,5-benzoxathiaazacyclododecine-4-carboxylate], the “maximum non-effective concentration” value on DNA gyrase turned out to be 0.1 µg/mL. The MIC in the assay with N. meningitidis 69480 worked out at 8 µg/mL; with E. coli B, 128 µg/mL; with S. aureus 25923, 32 µg/mL; in the assay with S. faecalis 6 it was 32 µg/mL; in the assay with S. aureus 887, 32 µg/mL; in the assay with S. pyogenes 15, 16 µg/mL. Besides, the MIC in the assay with B. catarrhalis RA 117 is 4 µg/mL.

Turning to `CCOC(=O)[C@@H]1CSCc2c(O)cc(OC)c(C)c2C(=O)OC[C@H](NC=O)C(=O)N1` [Example 69, ethyl (4R,7S)-7-formamido-1,3,4,5,6,7,8,10-octahydro-14-hydroxy-12-methoxy-11-methyl-6,10-dioxo-9,2,5-benzoxathiaazacyclododecine-4-carboxylate], the “maximum non-effective concentration” value on DNA gyrase was determined as 0.05 µg/mL. Also, the MIC worked out at 16 µg/mL with E. coli DC2; 32 µg/mL in the assay with E. coli B; 128 µg/mL in the assay with S. aureus 25923; 16 µg/mL in the assay with S. faecalis 6; 32 µg/mL with S. aureus 887; 4 µg/mL in the assay on S. pyogenes 15. For the same compound, in the assay with B. catarrhalis RA 117, the MIC was 4 µg/mL.

For `C=CCNC(=O)[C@@H]1CSCc2c(O)cc(OC)c(C)c2C(=O)OC[C@H](NC(=O)OC(C)(C)C)C(=O)N1` [Example 84, (4R,7S)-7-tert-butoxycarbonylamino-1,3,4,5,6,7,8,10-octahydro-14-hydroxy-l2-methoxy-11-methyl-6,10-dioxo-9,2,5-benzoxathiaazacyclododecine-4-carboxylic acid allylamide], the “maximum non-effective concentration” value at DNA gyrase amounted to 0.1 µg/mL. Further, the MIC with E. coli DC2 was > 128 µg/mL; in the assay with N. meningitidis 69480, 4 µg/mL; in the assay with E. coli B, > 128 µg/mL; with S. aureus 25923, 32 µg/mL; in the assay with S. faecalis 6, 32 µg/mL; in the assay with S. aureus 887, 16 µg/mL. The figures for the MIC with S. pyogenes 15 and in the assay with B. catarrhalis RA 117 were 16 µg/mL and 4 µg/mL, respectively.

As to `COC(=O)[C@@H]1CSCc2c(O)cc(OC)cc2C(=O)OCCC(=S)N1` [Example 101, methyl (4R)-1,3,4,5,6,7,8,10-octahydro-14-hydroxy-12-methoxy-10-oxo-6-thioxo-9,2,5-benzoxathiaazacyclododecine-4-carboxylate], the “maximum non-effective concentration” value at DNA gyrase came out at 0.1 µg/mL. Moreover, the MIC worked out at 64 µg/mL in the assay with E. coli DC2; 8 µg/mL with N. meningitidis 69480; 64 µg/mL with E. coli B; 16 µg/mL in the assay on S. aureus 25923; 32 µg/mL in the assay on S. faecalis 6; 16 µg/mL with S. aureus 887. Also, the MIC was 16 µg/mL in the assay on S. pyogenes 15 and 4 µg/mL with B. catarrhalis RA 117.

On to `CCOC(=O)[C@@H]1CSCc2c(O)cc(OC)c(C)c2C(=O)OC[C@H](NC(C)=S)C(=O)N1` [Example 102, ethyl (4R,7S)-1,3,4,5,6,7,8,10-octahydro-14-hydroxy-12-methoxy-11-methyl-6,10-dioxo-7-thioacetamido-9,2,5-benzoxathiaazacyclododecine-4-carboxylate], for which the “maximum non-effective concentration” value at DNA gyrase was found to be 0.25 µg/mL. For the same compound, the MIC was determined as 64 µg/mL in the assay on E. coli DC2; 2 µg/mL in the assay with N. meningitidis 69480; 64 µg/mL in the assay with E. coli B; 16 µg/mL in the assay on S. aureus 25923; 16 µg/mL with S. faecalis 6; 8 µg/mL in the assay on S. aureus 887. The MIC in the assay with S. pyogenes 15 stood at 8 µg/mL; in the assay on B. catarrhalis RA 117, 2 µg/mL.

`COC(=O)N[C@H]1COC(=O)c2c(C)c(OC)cc(O)c2CSC[C@@H](C(=O)OC)NC1=O` [Example 137, Methyl (4R,7S)-1,3,4,5,6,7,8,10-octahydro-14-hydroxy-12-methoxy-4-methoxycarbonyl-11-methyl-6,10-dioxo-9,2,5-benzoxathiaazacyclododecine-7-carbamate]: at DNA gyrase, the “maximum non-effective concentration” value stood at 0.2 µg/mL. Also, the MIC with E. coli DC2 stood at 64 µg/mL; with N. meningitidis 69480, 8 µg/mL; in the assay on E. coli B, 64 µg/mL; in the assay with S. aureus 25923, 128 µg/mL; in the assay on S. faecalis 6, 64 µg/mL; in the assay on S. aureus 887 it was 32 µg/mL. For the same compound, the MIC was 8 µg/mL in the assay on S. pyogenes 15 and 4 µg/mL with B. catarrhalis RA 117.

For the origin of these results see patent US5294609A, “DNA gyrase inhibitors and pharmaceutical preparations therefor” (Hoffmann-LaRoche Inc., priority 1991, dated 1994).
